For 30 molecules, TGI and GI50 results are on record in PubChem BioAssay (NCI).

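Briefly, cells in 96-well plates were exposed to five compound concentrations for 48 h, and endpoints were estimated by linear interpolation. GI50: concentration for 50% inhibition of growth. TGI marks complete inhibition of growth.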 Where a SMILES comes first, the peptide text is derived from it. Bridges are numbered along the chain shown (N, C = ends). [ ]: non-standard residue; d: D form. The star is where a group is joined. ξ: configuration not given here. Cbz = O=C(OCc1ccccc1)*; ξD = NC(CC(=O)O)C(=O)O; Ac3c = NC1(C(=O)O)CC1; Boc = CC(C)(C)OC(=O)*; OtBu = CC(C)(C)O* Some results are limits rather than exact numbers.

Assay in all cases: NCI tumour cell line growth inhibition, 48 h
Test [1] deals with SK-OV-3 ovarian.
Test [2] relates to SW-620 colon.
The subject of test [3] is IGROV1 ovarian.
Test [4] deals with HCT-15 colon.
Test [5] concerns HCC-2998 colon.
The test system of test [6] is HOP-92 NSCLC.
Test [7] relates to RXF 393 renal.
In test [8] the test system is MOLT-4 leukemia.
For test [9], the system named is CCRF-CEM leukemia.
Test [10] deals with HS 578T breast.

With `Cc1occ2c1C(=O)CC1C2[C@@H](O)CC2C(C)(C)CCC[C@]12C` (some centres not stated), the TGI in test [1], in test [2], in [3], in [4], in test [5] and in test [6] was greater than 100 µM throughout. Also, the TGI in test [7], in [8] and in [9] was greater than 100 µM throughout.

As for `COc1cc(OC)cc(-c2n/c(=C\c3c(O)[nH]c4ccc(Cl)cc34)cc3c2=Nc2ccccc2-3)c1`, the GI50 in test [1] was 10.2 µM; in test [10], 16.4 µM; in test [2], 2.66 µM; in test [3], 3.46 µM; in test [4], 6.58 µM; in test [5], 4.22 µM. Moreover, the GI50 in test [7] is 6.05 µM; in test [8] it was 2.18 µM; in test [9], 3.34 µM. Besides, the TGI was 26 µM in test [1]; 62.4 µM in [10]; 8 µM in test [2]; 10.1 µM in test [3]; 27.7 µM in [4]; 19.5 µM in test [5]. Besides, the TGI was 21.4 µM in test [7], 4.74 µM in test [8] and greater than 100 µM in test [9].

Regarding `O=C(N/N=C/c1ccc(Cl)cc1)c1cc(I)cc(I)c1O`, the TGI in [1], in test [2], in test [3], in test [4], in test [6] and in [7] was greater than 100 µM in each case. The TGI in test [8] and in [9] was greater than 100 µM throughout.

For the molecule `COc1cc(/C=C2\Cc3cc(OC)c(OC)cc3C2=O)cc(OC)c1`, the TGI in [1] was greater than 84.9 µM; in [10], greater than 100 µM; in test [2], greater than 100 µM; in test [3], greater than 100 µM; in test [4], greater than 100 µM; in test [6], greater than 57.5 µM. Also, the TGI in [7] was 57.1 µM; in test [8], greater than 100 µM; in test [9], greater than 100 µM.

For the molecule `O=C1NC2CCCCC2N=C1/C(C(=O)c1ccccc1)=C(\O)c1ccccc1` (configuration not stated), the TGI in test [1] is 84.8 µM; in test [10], greater than 100 µM; in [2], greater than 100 µM; in test [3], greater than 100 µM; in test [4] it was greater than 100 µM; in [5], greater than 100 µM. In addition, the TGI is greater than 100 µM in test [7], 79.3 µM in test [8] and 84.7 µM in [9].

For the molecule `C#CCSc1nc(N)c2ncn(C3OC(COP(=O)(O)O)C(O)C3O)c2n1` (configuration not stated), the TGI in test [1], in test [2], in test [3], in test [4], in test [5] and in [6] was greater than 239 µM in each case. In addition, the TGI in [8] and in test [9] was greater than 239 µM each time.

For the molecule `COC(=O)C1=C(C)N(NC(=O)c2ccccc2)C2(O)CCCC(=O)C12C` (configuration not stated), the TGI in [1], in test [2], in test [3], in test [4], in test [6] and in test [7] was greater than 100 µM throughout.

`[N-]=[N+]=NC[C@H]1OCO[C@H](CN=[N+]=[N-])[C@H]2OCCOCCOc3ccccc3OCCOCCO[C@@H]21`: the TGI in test [1], in [10], in test [2], in [3], in test [4] and in test [5] was greater than 100 µM throughout. Further, the TGI in test [7], in test [8] and in [9] was greater than 100 µM throughout.

Regarding `CN1Cc2c(nc(-c3ccc(Br)cc3)c[n+]2[O-])N(C)C1`, the TGI in test [1], in test [2], in test [3], in test [6], in test [7] and in test [8] was greater than 100 µM throughout. In addition, the TGI in test [9] was greater than 100 µM.

As for `CC(C)(C)OC(=O)NCC(=O)NC1C/C(=N\O)c2sccc21` (configuration not stated), the TGI in [1], in test [10], in [2], in test [3], in [4] and in test [5] was greater than 100 µM in each case. The TGI in test [7], in test [8] and in test [9] was greater than 100 µM throughout.

On to `CC(=O)c1ccc(N2CCN(C3=CC(=O)c4c(O)ccc(O)c4C3=O)CC2)cc1`, for which the TGI in test [2] is greater than 100 µM; in test [3], greater than 100 µM; in test [4] it was 55.6 µM; in test [5], greater than 100 µM; in [6] it was 79.2 µM; in test [7], greater than 100 µM. Also, the TGI in test [8] and in test [9] was greater than 100 µM in each case.

As to `O/N=C1/C2CC3CC1(c1ccccc1)CC(/C3=N/O)/C2=N\O` (configuration not stated), the TGI in test [1], in [10], in test [2], in test [4], in [5] and in test [7] was greater than 100 µM in each case. For the same molecule, the TGI in test [8] and in test [9] was greater than 100 µM in each case.

Turning to `CCNc1ncnc2c1nnn2CC`, the TGI in test [1], in test [2], in test [3], in test [4], in test [5] and in test [6] was greater than 100 µM each time. The TGI in test [7], in test [8] and in [9] was greater than 100 µM throughout.

As to `COC(=O)C1(NC(=O)C(CC(=O)OC(C)(C)C)NC(=O)OC(C)(C)C)CC1` (configuration not stated) (Boc-[ξD](OtBu)-[Ac3c]-OMe), the TGI in test [1], in [10], in test [2], in [3], in test [4] and in [5] was greater than 100 µM throughout. The TGI in test [7], in test [8] and in test [9] was greater than 100 µM in each case.

Regarding `Oc1ccc(Cl)cc1C1=N/C(=N\C/N=C2\N=C(c3cc(Cl)ccc3O)CC(c3ccccc3)N2)NC(c2ccccc2)C1` (configuration not stated), the TGI in test [1], in test [2], in test [3], in [4], in test [5] and in test [6] was greater than 100 µM throughout. The TGI in [7] and in [9] was greater than 100 µM each time.

In the case of `O=C1c2ccccc2-c2nc(-c3ccccc3)cc3c2c1nc1ccccc13`, the TGI in test [1] came out at 55.2 µM; in [10], 63.9 µM; in test [2] it was 36.6 µM; in test [3], 23 µM; in [4], 28.5 µM; in [5], 26.7 µM. The TGI in [7] is greater than 100 µM; in test [8] it was 36.4 µM; in test [9] it was 28.2 µM.

`Cc1nn(C)c2nc3ccc(Cl)cc3c(-c3ccccc3)c12`: the TGI in test [1], in test [2], in test [4], in [5], in test [6] and in [7] was greater than 100 µM throughout. In addition, the TGI in test [8] and in test [9] was greater than 100 µM in each case.

In the case of `Cc1ccnc(NC(=S)Nc2cccc(Cl)c2)c1`, the TGI in test [1], in test [10], in [2], in test [3], in [4] and in test [7] was greater than 100 µM each time. Also, the TGI in test [8] and in test [9] was greater than 100 µM throughout.

On to `CC(=O)Nc1ccc(C(=O)N2N=C(C)/C(=C/c3cccc([N+](=O)[O-])c3)C2=O)cc1`, for which the TGI in test [2], in test [5], in test [8] and in [9] was greater than 100 µM in each case.

Regarding `CC(C)=Nn1cnc(C(=N)C#N)c1N`, the TGI in test [1], in [2], in test [3], in test [4], in test [5] and in test [7] was greater than 100 µM throughout. Further, the TGI in test [8] and in [9] was greater than 100 µM each time.

With `O=c1[nH]cnc2sc(=S)c3c(c12)CCC3`, the TGI in [1] is greater than 100 µM; in test [10] it was greater than 100 µM; in [2], 49.2 µM; in test [3], greater than 100 µM; in [4], 91.4 µM; in test [6], 66.3 µM. In addition, the results for the TGI in test [7], in test [8] and in [9] were 63.4 µM, 41.2 µM and 49 µM, respectively.

Take `CCC(=O)NC(OCC1(CC)COC1)(C(F)(F)F)C(F)(F)F`: the TGI in [1], in [10], in test [4], in test [5], in test [7] and in [8] was greater than 100 µM in each case. Besides, the TGI in test [9] is greater than 100 µM.

On to `COC(=O)C1CCCCNC(=O)CCC(NC(=O)OCc2ccccc2)C(=O)N1` (stereo not drawn) (Cbz-Glu-Lys-OMe; lactam 1-2; configuration not given here), for which the TGI in test [1] is greater than 100 µM; in [10], greater than 100 µM; in test [2] it was greater than 100 µM; in test [3], greater than 100 µM; in test [4] it was greater than 100 µM; in test [6], 95.1 µM. Also, the TGI in test [7], in [8] and in test [9] was greater than 100 µM in each case.

Take `C=CCC1(CC)C(=O)NC(=O)NC1=O`: the TGI in test [1], in test [2], in [3], in test [4], in [5] and in test [7] was greater than 100 µM each time. Moreover, the TGI in test [8] and in test [9] was greater than 100 µM each time.

Regarding `O=C(O)c1cc(Cl)cc2c1NC1(N2)C(=O)Nc2ccccc21` (configuration not stated), the TGI in test [1], in [2], in [3], in [4], in test [5] and in test [6] was greater than 100 µM throughout. For the same molecule, the TGI in test [7], in test [8] and in test [9] was greater than 100 µM each time.

Consider `CSc1nc(C#N)c(N)n1C`, for which the TGI in test [1], in [10], in test [2], in test [3], in test [4] and in test [6] was greater than 100 µM throughout. Further, the TGI in test [7], in [8] and in test [9] was greater than 100 µM throughout.

Consider `O=C1CCC2(O)C3Cc4ccc(Oc5nnnn5-c5ccccc5)c5c4C2(CCN3CC2CC2)C1O5` (configuration not stated), for which the TGI in test [1], in test [10], in test [2], in test [3], in [4] and in [6] was greater than 100 µM each time. The TGI in test [7] is greater than 100 µM; in test [8], greater than 100 µM; in test [9], 47.4 µM.

With `C=C(Br)CNCC(=C)Br`, the TGI in test [1], in test [10], in test [2], in test [3], in [4] and in test [5] was greater than 100 µM each time. For the same molecule, the TGI in [7], in [8] and in test [9] was greater than 100 µM each time.

For the molecule `COc1cccc(NC(=O)CC(=O)NNCC(=O)Nc2nnc(-c3ccc(N(CCC#N)S(=O)(=O)c4ccccc4)cc3)s2)c1`, the TGI in [1], in [2], in test [3], in test [4], in test [5] and in test [6] was greater than 100 µM each time. For the same molecule, the TGI in test [7] and in [8] was greater than 100 µM throughout.

`CN(/N=N/c1nc[nH]c1C(N)=O)C1CCCCC1`: the TGI in test [1], in test [2], in test [3], in [4], in test [5] and in test [6] was greater than 100 µM each time. The TGI in [7], in test [8] and in [9] was greater than 100 µM throughout.
